Source: ChEMBL document CHEMBL4265876, “Natural Products with Heteroatom-Rich Ring Systems” (J Nat Prod, 2017)
pIC50: −log10 of the molar value. Converted amounts (≈) assume the structure as drawn.

Experiments:
HL-60 = test: Cytotoxicity against human HL60 cells; format: functional, cell-based
MDA-MB-468 = test: Cytotoxicity against human MDA-MB-468 cells; format: functional, cell-based
V79 = test: Cytotoxicity against chinese hamster V79 cells; format: cell-based; conditions: Cricetulus griseus
MDA-MB-231 [1] = test: Cytotoxicity against human MDA231 cells; format: functional, cell-based
MIA PaCa-2 = test: Cytotoxicity against human MIAPaCa2 cells; format: functional, cell-based
UMUC3 = test: Cytotoxicity against human UM-UC-3 cells; format: functional, cell-based
HT-29 = test: Cytotoxicity against human HT-29 cells; format: functional, cell-based
PC-3 = test: Cytotoxicity against human PC3 cells; format: functional, cell-based
KB = test: Growth inhibition of human KB cells; format: functional, cell-based
Escherichia coli = test: Antibacterial activity against Escherichia coli; format: functional
Armoracia rusticana = test: Herbicidal activity against Armoracia rusticana; format: functional
[Chlorella] fusca = Algicidal activity against Chlorella fusca IAM C-28; format: functional; conditions: Scenedesmus fuscus
Proteus vulgaris = test: Antibacterial activity against Proteus vulgaris; format: functional
Trichormus variabilis = test: Growth inhibition of Anabaena variabilis NIES 23; format: functional
[2] = tested on: Chlamydomonas reinhardtii; test: Algicidal activity against Chlamydomonas reinhardtii IAM C-238; format: functional
Daucus carota = test: Herbicidal activity against Daucus carota; format: functional
Dunaliella salina = test: Algicidal activity against Dunaliella salina; format: functional
Anabaena cylindrica = test: Growth inhibition of Anabaena cylindrica NIES 19; format: functional
[3] = tested on: Auxenochlorella pyrenoidosa; test: Algicidal activity against Chlorella pyrenoidosa IAM C-212; format: functional
Bacillus subtilis = test: Antibacterial activity against Bacillus subtilis; format: functional
Serratia marcescens = test: Antibacterial activity against Serratia marcescens; format: functional
Nostoc commune = test: Growth inhibition of Nostoc commune NIES 24; format: functional
Dunaliella tertiolecta = test: Algicidal activity against Dunaliella tertiolecta ATCC 30929; format: functional
Catharanthus roseus = test: Herbicidal activity against Catharanthus roseus; format: functional
Trypanosoma cruzi [4] = test: Antitrypanosomal activity against Trypanosoma cruzi Y by MTT assay; format: functional, organism-based
Trypanosoma cruzi [5] = test: Antitrypanosomal activity against Trypanosoma cruzi Y intracellular amastigotes; format: functional, organism-based
[6] = biological target: C-X-C chemokine receptor type 4 (Rattus norvegicus) (UniProt O08565); test: Antagonist activity at CXCR4 in rat GH4C1 cells assessed as inhibition of CXCL12-induced DNA synthesis at 10 uM after 72 hrs by BrdU incorporation assay; format: functional, cell-based
[7] = biological target: Sodium-dependent noradrenaline transporter (Homo sapiens) (UniProt P23975); test: Inhibition of norepinephrine transporter (unknown origin) at 10 uM
HeLa = test: Cytotoxicity against human HeLa cells assessed as decrease in cell viability; format: functional, cell-based
[8] = biological target: C-X-C chemokine receptor type 4 (Rattus norvegicus) (UniProt O08565); test: Antagonist activity at CXCR4 in rat GH4C1 cells assessed as inhibition of CXCL12-induced cell migration at 0.1 uM after 72 hrs by BrdU incorporation assay; format: functional, cell-based
3T3-L1 = test: Cytotoxicity against mouse 3T3L1 cells assessed as decrease in cell viability; format: cell-based
[9] = biological target: Sodium-dependent dopamine transporter (Homo sapiens) (UniProt Q01959); test: Inhibition of dopamine transporter (unknown origin) at 10 uM
[10] = biological target: Sodium-dependent serotonin transporter (Homo sapiens) (UniProt P31645); test: Inhibition of serotonin transporter (unknown origin) at 10 uM
[11] = biological target: Mu-type opioid receptor (Homo sapiens) (UniProt P35372); test: Inhibition of mu opioid receptor (unknown origin) at 10 uM
C6 = test: Cytotoxicity against rat C6 cells assessed as decrease in cell viability; format: functional, cell-based
A549 = test: Cytotoxicity against human A549 cells; format: functional; conditions: read-out: ED50 (the source's name)
SK-MEL-2 = test: Cytotoxicity against human SK-MEL-2 cells; format: functional; conditions: read-out: ED50 (the source's name)
SK-OV-3 = test: Cytotoxicity against human SKOV3 cells; format: functional; conditions: read-out: ED50 (the source's name)
HCT-15 = test: Cytotoxicity against human HCT15 cells; format: functional; conditions: read-out: ED50 (the source's name)
XF498 = test: Cytotoxicity against human XF498 cells; format: functional; conditions: read-out: ED50 (the source's name)
Salmonella sp. [12] = test: Antimicrobial activity against Salmonella sp.; format: functional
Citrobacter = test: Antimicrobial activity against Citrobacter; format: functional
[13] = tested on: Trichophyton mentagrophytes; test: Antimicrobial activity against Trichophyton mentagrophytes; format: functional
Proteus sp. = test: Antimicrobial activity against Proteus sp.; format: functional; conditions: Proteus sp. (in: enterobacteria)
Staphylococcus aureus = test: Antibacterial activity against Staphylococcus aureus; format: functional
L1210 = test: Cytotoxicity against mouse L1210 cells; format: functional, cell-based
Klebsiella sp. = test: Antimicrobial activity against Klebsiella sp.; format: functional
Candida albicans [14] = test: Antifungal activity against Candida albicans; format: functional
Enterococcus faecalis = test: Antimicrobial activity against Streptococcus faecalis; format: functional
Enterobacter sp. = test: Antimicrobial activity against Enterobacter sp.; format: functional
HGC-27 = test: Growth inhibition of human HGC27 cells after 48 hrs by MTT assay; format: functional, cell-based; conditions: HGC-27, 48 h
DLD-1 = test: Cytotoxicity against human DLD1 cells; format: functional, cell-based
HCT-116 = test: Cytotoxicity against human HCT116 cells; format: functional, cell-based
ACHN = test: Cytotoxicity against human ACHN cells; format: functional, cell-based
NCI-H460 = test: Cytotoxicity against human NCI-H460 cells; format: functional, cell-based
MDA-MB-231 [15] = test: Cytotoxicity against human MDA-MB-231 cells; format: functional, cell-based
Ruegeria atlantica = test: […] activity against Ruegeria atlantica assessed as inhibition zone at 50 ug/disk; format: functional; conditions: read-out: IZ
MCF7 = test: Cytotoxicity against human MCF7 cells; format: functional, cell-based
Candida albicans [16] = test: Antifungal activity against Candida albicans assessed as inhibition zone at 2 ug/disk; format: functional; conditions: read-out: IZ
Pasteurella multocida = test: Antibacterial activity against Pasteurella multocida; format: functional
Herpesviridae sp. = test: Antiviral activity against Herpes simplex virus infected in mouse assessed as mouse survival at 400 mg/kg, sc for 28 days; format: functional; conditions: 672 h
Haemophilus = test: Antibacterial activity against Haemophilus sp.; format: functional
Morganella morganii = test: Antibacterial activity against Proteus morgana; format: functional
Klebsiella pneumoniae = test: Antibacterial activity against Klebsiella pneumoniae; format: functional
Salmonella sp. [17] = test: Antibacterial activity against Salmonella sp.; format: functional
Streptococcus pyogenes = test: Antibacterial activity against Streptococcus hemolyticus; format: functional
Providencia rettgeri = test: Antibacterial activity against Proteus rettgeri; format: functional

C-X-C chemokine receptor type 4 (Rattus norvegicus), sequence (O08565 whole entry): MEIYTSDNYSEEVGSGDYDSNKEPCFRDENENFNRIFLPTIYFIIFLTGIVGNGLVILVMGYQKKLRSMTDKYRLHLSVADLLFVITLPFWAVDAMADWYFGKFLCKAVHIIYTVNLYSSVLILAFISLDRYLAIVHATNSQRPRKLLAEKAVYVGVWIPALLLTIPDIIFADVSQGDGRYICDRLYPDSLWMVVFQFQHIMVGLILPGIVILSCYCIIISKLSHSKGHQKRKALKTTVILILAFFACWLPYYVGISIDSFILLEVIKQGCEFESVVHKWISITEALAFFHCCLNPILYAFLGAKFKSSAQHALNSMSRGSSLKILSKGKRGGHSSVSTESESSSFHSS
Sodium-dependent serotonin transporter (Homo sapiens), sequence (P31645 whole entry, looked up): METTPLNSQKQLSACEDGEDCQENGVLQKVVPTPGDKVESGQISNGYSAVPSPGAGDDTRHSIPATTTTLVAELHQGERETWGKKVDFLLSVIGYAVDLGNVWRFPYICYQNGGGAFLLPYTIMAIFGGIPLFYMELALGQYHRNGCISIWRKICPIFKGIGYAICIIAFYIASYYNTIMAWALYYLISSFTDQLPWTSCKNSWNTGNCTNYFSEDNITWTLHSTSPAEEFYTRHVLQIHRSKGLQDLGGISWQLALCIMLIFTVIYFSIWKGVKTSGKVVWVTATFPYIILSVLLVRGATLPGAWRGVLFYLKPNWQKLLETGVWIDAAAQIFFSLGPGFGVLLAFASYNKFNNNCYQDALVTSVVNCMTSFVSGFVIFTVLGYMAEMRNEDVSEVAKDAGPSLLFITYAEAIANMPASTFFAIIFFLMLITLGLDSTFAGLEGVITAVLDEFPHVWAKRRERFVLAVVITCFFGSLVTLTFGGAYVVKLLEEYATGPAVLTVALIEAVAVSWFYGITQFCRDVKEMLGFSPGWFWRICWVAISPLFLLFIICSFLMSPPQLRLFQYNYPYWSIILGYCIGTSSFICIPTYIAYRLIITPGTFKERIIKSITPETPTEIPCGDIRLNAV
Mu-type opioid receptor (Homo sapiens), sequence (P35372 whole entry): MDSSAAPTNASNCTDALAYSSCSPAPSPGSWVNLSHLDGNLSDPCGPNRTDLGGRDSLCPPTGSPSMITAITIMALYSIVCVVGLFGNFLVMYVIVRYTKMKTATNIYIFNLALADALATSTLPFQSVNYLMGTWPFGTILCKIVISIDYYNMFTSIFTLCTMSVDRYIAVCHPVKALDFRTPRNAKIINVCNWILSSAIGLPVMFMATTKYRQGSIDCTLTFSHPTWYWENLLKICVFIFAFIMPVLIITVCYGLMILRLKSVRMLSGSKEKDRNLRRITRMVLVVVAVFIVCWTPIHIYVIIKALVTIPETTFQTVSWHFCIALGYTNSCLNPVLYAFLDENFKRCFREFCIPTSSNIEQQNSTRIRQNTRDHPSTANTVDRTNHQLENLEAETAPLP
Sodium-dependent dopamine transporter (Homo sapiens), sequence (Q01959 whole entry): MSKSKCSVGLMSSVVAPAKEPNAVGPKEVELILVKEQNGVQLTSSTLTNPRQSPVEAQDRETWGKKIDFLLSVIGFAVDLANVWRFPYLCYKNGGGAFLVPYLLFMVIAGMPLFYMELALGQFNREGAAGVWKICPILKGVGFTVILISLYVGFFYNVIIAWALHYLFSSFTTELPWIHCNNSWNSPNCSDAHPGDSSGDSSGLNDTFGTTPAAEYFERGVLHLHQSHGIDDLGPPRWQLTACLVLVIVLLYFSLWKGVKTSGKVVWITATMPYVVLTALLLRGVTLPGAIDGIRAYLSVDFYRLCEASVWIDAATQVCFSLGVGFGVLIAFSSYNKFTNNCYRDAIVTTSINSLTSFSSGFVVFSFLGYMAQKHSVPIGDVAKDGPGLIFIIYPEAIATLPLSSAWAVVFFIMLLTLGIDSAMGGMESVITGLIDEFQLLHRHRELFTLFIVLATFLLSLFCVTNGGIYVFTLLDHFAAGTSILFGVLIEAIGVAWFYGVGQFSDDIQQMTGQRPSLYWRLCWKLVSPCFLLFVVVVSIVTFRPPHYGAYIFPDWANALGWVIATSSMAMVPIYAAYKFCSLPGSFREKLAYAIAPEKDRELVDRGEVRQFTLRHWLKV
Sodium-dependent noradrenaline transporter (Homo sapiens), sequence (P23975 whole entry): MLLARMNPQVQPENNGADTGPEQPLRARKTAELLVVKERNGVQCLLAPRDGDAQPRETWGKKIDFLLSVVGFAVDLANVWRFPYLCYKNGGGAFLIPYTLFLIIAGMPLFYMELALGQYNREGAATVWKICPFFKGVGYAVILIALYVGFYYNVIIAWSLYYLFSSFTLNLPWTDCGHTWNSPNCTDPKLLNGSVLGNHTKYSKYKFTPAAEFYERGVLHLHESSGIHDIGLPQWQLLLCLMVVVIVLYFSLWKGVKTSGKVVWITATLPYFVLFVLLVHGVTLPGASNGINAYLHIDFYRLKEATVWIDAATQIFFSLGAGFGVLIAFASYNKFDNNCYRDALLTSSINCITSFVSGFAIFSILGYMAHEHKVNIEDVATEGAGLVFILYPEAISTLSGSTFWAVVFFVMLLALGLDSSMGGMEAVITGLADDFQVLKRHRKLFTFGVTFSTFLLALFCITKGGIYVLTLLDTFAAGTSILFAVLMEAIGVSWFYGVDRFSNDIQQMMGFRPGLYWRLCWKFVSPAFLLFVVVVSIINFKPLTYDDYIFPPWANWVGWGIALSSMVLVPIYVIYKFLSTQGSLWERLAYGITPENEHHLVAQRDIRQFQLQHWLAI

## COc1c(SC)c(CCN(C)C)c2sc3c(CCN(C)C)c(SC)c(OC)c(OC)c3ssc2c1OC [LISSOCLINOTOXIN F]
HL-60
  pIC50: 6.64
MDA-MB-468
  IC50: 4.2 µg/mL (≈ 6.97 µM)
V79
  pIC50: 6.55

## COc1cc(CCN)c2c(c1OC)SS[S+]2[O-] (stereo not given)
MDA-MB-231 [1]
  pIC50: 7.92 to 8.62
MIA PaCa-2
  pIC50: 7.92 to 8.62
UMUC3
  pIC50: 7.92 to 8.62
HT-29
  pIC50: 7.92 to 8.62
PC-3
  pIC50: 7.92 to 8.62

## Nc1ncn([C@@H]2O[C@H](CO)[C@@H](O)[C@H]2O)c(=O)n1 [AZACITIDINE]
KB
  IC50: 0.23 µg/mL (≈ 0.942 µM)
Escherichia coli
  MIC: 0.01 µg/mL (≈ 0.0409 µM)

## Cn1ncnc2c(=O)[nH]nc1-2
Armoracia rusticana
  MIC: 1 to 2 µg/mL (≈ 6.62 to 13.2 µM)
[Chlorella] fusca
  MIC: 5 µM (≈ 0.756 µg/mL)
Proteus vulgaris
  MIC: 12 µg/mL (≈ 79.4 µM)
Trichormus variabilis
  MIC: 30 µM (≈ 4.53 µg/mL)
[2]
  MIC: 30 µM (≈ 4.53 µg/mL)
Daucus carota
  MIC: 1 to 2 µg/mL (≈ 6.62 to 13.2 µM)
Dunaliella salina
  MIC: 15 µM (≈ 2.27 µg/mL)
Anabaena cylindrica
  MIC: 30 µM (≈ 4.53 µg/mL)
[3]
  MIC: 30 µM (≈ 4.53 µg/mL)
Bacillus subtilis
  MIC: 6 µg/mL (≈ 39.7 µM)
Serratia marcescens
  MIC: 7 µg/mL (≈ 46.3 µM)
Nostoc commune
  MIC: 20 µM (≈ 3.02 µg/mL)
Escherichia coli
  MIC: 8 µg/mL (≈ 52.9 µM)
Dunaliella tertiolecta
  MIC: 20 µM (≈ 3.02 µg/mL)
Catharanthus roseus
  MIC: 1 to 2 µg/mL (≈ 6.62 to 13.2 µM)

## C=C(C)C1CNC(NCC=C(C)C)=NO1 (stereo not given)
Trypanosoma cruzi [4]
  IC50: 93 µg/mL (≈ 444 µM)
Trypanosoma cruzi [5]
  IC50: 27 µg/mL (≈ 129 µM)

## N=C(N)NCCCCCNc1noc(Cc2c[nH]c3cc(Br)ccc23)n1
[6]
  inhibition: 50%
[7]
  inhibition: 68%
HeLa
  pIC50: 5.82
[8]
  inhibition: 100%
3T3-L1
  pIC50: 6.85
[9]
  inhibition: 101%
[10]
  inhibition: 22%
[11]
  inhibition: 103%
C6
  pIC50: 5.82

## CC(C)CCCCC1=CN=CN2COC(=O)N12
A549
  EC50: 0.62 µg/mL (≈ 2.61 µM)
SK-MEL-2
  EC50: 0.76 µg/mL (≈ 3.2 µM)
SK-OV-3
  EC50: 0.36 µg/mL (≈ 1.52 µM)
HCT-15
  EC50: 0.6 µg/mL (≈ 2.53 µM)
XF498
  EC50: 0.7 µg/mL (≈ 2.95 µM)

## COc1c(O)cc(CCN)c2c1SSSSS2
Salmonella sp. [12]
  MIC: 0.1 to 0.6 µg/mL (≈ 0.307 to 1.84 µM)
Citrobacter
  MIC: 0.1 to 0.6 µg/mL (≈ 0.307 to 1.84 µM)
[13]
  MIC: 20 µg/mL (≈ 61.4 µM)
Proteus sp.
  MIC: 0.1 to 0.6 µg/mL (≈ 0.307 to 1.84 µM)
Staphylococcus aureus
  MIC: 0.1 to 0.6 µg/mL (≈ 0.307 to 1.84 µM)
L1210
  IC50: 1 µg/mL (≈ 3.07 µM)
Klebsiella sp.
  MIC: 0.1 to 0.6 µg/mL (≈ 0.307 to 1.84 µM)
Escherichia coli
  MIC: 0.1 to 0.6 µg/mL (≈ 0.307 to 1.84 µM)
Candida albicans [14]
  MIC: 40 µg/mL (≈ 123 µM)
Enterococcus faecalis
  MIC: 0.1 to 0.6 µg/mL (≈ 0.307 to 1.84 µM)
Enterobacter sp.
  MIC: 0.1 to 0.6 µg/mL (≈ 0.307 to 1.84 µM)

## Oc1ccc(Cc2nsc(Cc3ccc(O)cc3)n2)cc1
HGC-27
  pIC50: 3.76

## COc1c(SC)c(CCN(C)C)c2sc3c(OC)c(OC)c(SC)c(CCN(C)C)c3ssc2c1OC [LISSOCLIBADIN 2]
HL-60
  pIC50: 7.10
DLD-1
  pIC50: 7.00
HCT-116
  pIC50: 6.85
V79
  pIC50: 6.68
ACHN
  pIC50: 6.62
NCI-H460
  pIC50: 6.57
MDA-MB-231 [15]
  pIC50: 6.70
Ruegeria atlantica
  zone of inhibition at 50 µg/disc: 28.2 mm

## COc1cc(CCN)c2c(c1OC)SSSSS2 [VARACIN]
HCT-116
  IC90: 0.05 µg/mL (≈ 0.147 µM)
MCF7
  pIC50: 8.77
MIA PaCa-2
  pIC50: 8.74
Candida albicans [16]
  zone of inhibition at 2 µg/disc: 14 mm
PC-3
  pIC50: 9.22

## CN1CN([C@H]2C[C@H](O)[C@@H](CO)O2)C(=O)NC1=O
Pasteurella multocida
  Activity: 2 to 125 µg/mL
Herpesviridae sp.
  survival at 400 mg/kg: 50%
Haemophilus
  Activity: 2 to 125 µg/mL
Morganella morganii
  Activity: 2 to 125 µg/mL
Klebsiella pneumoniae
  Activity: 2 to 125 µg/mL
Salmonella sp. [17]
  Activity: 2 to 125 µg/mL
Serratia marcescens
  MIC: 2 to 125 µg/mL (≈ 8.16 to 510 µM)
Streptococcus pyogenes
  Activity: 2 to 125 µg/mL
Providencia rettgeri
  Activity: 2 to 125 µg/mL
